Key:
[1] = target: T1, CYP3A4 (Homo sapiens, UniProt P08684); conditions: compared with metformin; cited from earlier work
[2] = target: T1, CYP3A4; conditions: cited from earlier work
[3] = system: MCF-7 breast cancer cells; assay: MTT assay of cell numbers, MCF-7; format: cell-based; conditions: 0-50 uM, 24 hours, concentrations that induce CD4 and CD8 T cell growth
Method: (§1) FIGS. 1A-B. Freshly harvested C57BL/6 splenocytes were seeded at 80,000 cells/well in a 96-well plate coated with anti-mouse CD3 (10 ug/ml) and anti-mouse CD28 (1 ug/ml) antibodies. After 24 hour incubation with HBB (0-50 uM), cells were then labeled with anti-mouse CD4-eFlour450, anti-mouse CD8 FITC and anti-mouse Thy1.2 APC-eFluor780 antibodies and analyzed by a flowcytometer. Thy1.2 positive single lymphocytes were gated as T cells and CD4 positive and CD8 positive cells were counted. FIG. 1A. Results are expressed as mean±S.D. (n=6). FIG. 1B. MCF-7 breast cancer cells were incubated in the same concentration range of HBB, also for 24 hours. MTT assay of cell numbers.

[4] = system: CD4+ T lymphocytes; assay: T cell proliferation, mouse splenocytes with anti-CD3 and anti-CD28 antibodies, flow cytometry; format: cell-based, C57BL/6J mouse
Method: as §1
(§2) FIG. 4. Freshly harvested C57BL/6 splenocytes were seeded at 80,000 cells/well in a 96-well plate coated with anti-mouse CD3 (10 ug/ml) and anti-mouse CD28 (1 ug/ml) antibodies. After 24 hour incubation with metformin (0-10 mM), cells were then labeled with anti-mouse CD4-eFlour450, anti-mouse CD8 FITC and anti-mouse Thy1.2 APC-eFluor780 antibodies and analyzed by a flowcytometer. Thy1.2 positive single lymphocytes were gated as T cells and CD4 positive and CD8 positive cells were counted.
(§3) HBB effects on T cell growth were tested across a range of concentrations (0 to 50 uM). C57BL/6J mouse splenocytes were incubated with or without biguanides in the presence of anti-mouse CD3 and anti-mouse CD28 antibodies. After 24 hours, cells were labeled with fluorescently tagged antibodies to mouse Thy-1, CD4, CD8, CD25, CD44, CD62L and CD73 surface antigens and T cell subsets were analyzed by flow cytometry.

[5] = system: CD8+ T lymphocytes; assay: as above; format: cell-based, C57BL/6J mouse
Method: as §1, §2, §3

[6] = system: CD4+CD25+FOXP3- progenitor cells; assay: TRP conversion assay (IL2-dependent conversion into Tregs); format: cell-based; conditions: 1 U/mL IL2, 3 days
Source text: (§4) Each TRP (CD4+CD25+FOXP3- or CD4+CD25−FOXP3+) population was isolated by FACS and stimulated with 1 U/mL IL2 (in complete RPMI) for 3 days then analyzed for upregulation of CD25 and FOXP3 (by GFP reporter).

[7] = system: CD4+CD25−FOXP3+ progenitor cells; assay: as above; format: cell-based; conditions: 1 U/mL IL2, 3 days
Source text: as §4

[8] = system: Naive, non-Treg CD4 T cells; assay: iTreg differentiation; format: cell-based; conditions: IL2 and TGFb, 3 days
Method: Naive, non-Treg CD4 T cells were first isolated (these are isolated by magnetic depletion on CD8, CD11b, CD11c, CD19, CD24, CD25, CD44, CD49b, CD105, MHC-II, Gr1, Ter119, B220, TCRg/d). These cells were stimulated with plate bound anti-CD3/CD28 (plates were coated with 5 ug/mL for 2 hours at 37° C.) and given 100 U/mL IL2, 5 ng/mL TGFb and an additional 1 ug/mL anti-Cd28 in cRPMI. After 3 days the cells were stained for CD4, CD8 and CD25 with FOXP3 being on the GFP reporter. Tregs are defined here as CD25+FOXP3+. For this assay, 300,000 cells were plated per well in a 24 well plate.

[9] = system: breast cancer cell lines and established mouse mammary tumors; conditions: cited from earlier work
[10] = system: CD4+ and CD8+ T lymphocytes; assay: T cell growth/proliferation, mouse splenocytes with anti-CD3 and anti-CD28 antibodies, flow cytometry; format: cell-based, C57BL/6J mouse
Method: as §1, §2, §3

[11] = rodents; cited from earlier work

T1 sequence (P08684 whole entry): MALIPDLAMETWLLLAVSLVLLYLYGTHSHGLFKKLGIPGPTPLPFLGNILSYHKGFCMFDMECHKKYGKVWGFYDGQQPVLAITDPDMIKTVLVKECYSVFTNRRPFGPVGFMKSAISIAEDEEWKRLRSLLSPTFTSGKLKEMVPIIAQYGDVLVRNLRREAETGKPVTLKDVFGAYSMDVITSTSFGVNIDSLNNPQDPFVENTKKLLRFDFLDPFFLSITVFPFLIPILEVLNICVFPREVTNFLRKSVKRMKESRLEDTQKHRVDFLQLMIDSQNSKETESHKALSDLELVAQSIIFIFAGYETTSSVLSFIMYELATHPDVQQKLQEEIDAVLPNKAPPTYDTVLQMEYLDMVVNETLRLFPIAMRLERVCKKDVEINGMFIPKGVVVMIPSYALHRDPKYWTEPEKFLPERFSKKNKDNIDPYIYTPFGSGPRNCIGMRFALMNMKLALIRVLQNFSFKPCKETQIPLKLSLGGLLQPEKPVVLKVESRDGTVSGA

Q: What does the source list for `CCCCCCNC(=N)NC(=N)NCc1ccccc1` [HBB, N1-hexyl-N5-benzyl biguanide]?
A: affinity for the CYP3A4 heme [1]: higher affinity than metformin; inhibition of CYP3A4 AA epoxygenase activity [2]: potently and specifically inhibits; growth of MCF-7 breast cancer cells [3]: inhibit growth; proliferation of CD4+ T lymphocytes ([4]; 6 to 12 uM, P<0.05): 1.9 fold; increase of CD4+ T cells ([4]; 6 to 12 microM): 90%; effectiveness for expansion of CD4+ T cells ex vivo relative to metformin ([4]; at 1000-fold lower concentration): 3 fold; proliferation of CD8+ T lymphocytes ([5]; 6 to 12 uM, P<0.05): 1.6 fold; increase of CD8+ T cells ([5]; 6 to 12 microM): 60%; effectiveness for expansion of CD8+ T cells ex vivo relative to metformin ([5]; at 1000-fold lower concentration than metformin): 5 fold; IL2-dependent conversion into Tregs [6]: blocks; IL2-dependent conversion into Tregs [7]: blocks; FOXP3 and CD25 expression of the Treg cells generated [8]: expressed less FOXP3 and CD25; differentiation of naive T cells into Tregs [8]: inhibits; concentration range of activity against breast cancer cells [9]: ~20 µM; IC50 ([9]; read-out: IC50, OCR and growth inhibition): 3 to 30 µM; greater potency for T cell effects relative to metformin [10]: 1000 fold; T cell growth at low concentrations ([10]; 0.09 to 1.5 uM, 24 hours): did not inhibit

Q: Which results are given for `CN(C)C(=N)N=C(N)N` [metformin, reference compound]?
A: maximum tissue concentrations [11]: about 500 microM; increase of CD4+ T cells ([4]; 10 mM): 30%; increase of CD8+ T cells ([5]; 10 mM): 14%; concentration range of activity against breast cancer cells [9]: ~5000 µM; proliferation-inducing activity for T cells ([10]; concentrations below 5 mM): failed to show proliferation-inducing activity; concentrations causing an increase of CD4+ and CD8+ T lymphocytes ([10]; metformin, 24 hours, FIG. 4): > 5 mM

— patent US20190298666A1, “PROMOTION OF T LYMPHOCYTE PROLIFERATION” (Regents of the University of Minnesota, priority 2018, published 2019)
